In patent US7893041B2, “Oligosaccharide compositions and use thereof in the treatment of infection” (Children's Hospital Medical Center, priority 2003, dated 2011):

Experiments:
Campylobacter = experiment: Ex vivo inhibition of Campylobacter colonization of human intestinal mucosa; details: FIG. 9B
Method: FIGS. 9A and 9B are a pair of graphs depicting the results of an study showing inhibition of Campylobacter colonization in BALB/c mice fed with 2 mg of milk fucosylated oligosaccharides given during challenge with 10^4 and 10^8 CFU of bacteria (left). Ex vivo assays of inhibition of human gut colonization of Campylobacter with 2′-fucosyllactose (2′-FL) and milk fucosylated oligosaccharides (OS).

Campylobacter jejuni = experiment: Cohort of breastfed mother-infant pairs: milk oligosaccharide vs C. jejuni-associated diarrhea; type: in vivo, human; details: for Association of rates of C. jejuni diarrhea during breastfeeding with oligosaccharide as a percent of milk oligosaccharide: breastfed infants, 2′-FL P=0.004, LDFH-I P=0.047 (not persisting after controlling for 2′-FL)
Excerpt: (§1) A cohort of 316 mother-infant pairs was enrolled and monitored from birth to two years postpartum in San Pedro Martir, a transitional neighborhood of Mexico City. Enrollment was restricted to term, normal birthweight infants. This research was approved by institutional review boards in Mexico and Cincinnati. Written informed consent was obtained from mothers who participated. Infant illness and feeding history were collected by trained field workers who made weekly home visits. Milk samples were collected from mothers weekly in the first month, and monthly thereafter. Samples were collected in the morning by an experienced study nurse using an Egnell electric breast pump to obtain the complete content of one breast. Samples were transported on ice from the study household to the laboratory, where they were stored at −70° C. Infant stool samples were collected weekly with additional samples obtained whenever diarrhea occurred. Diarrhea samples were routinely tested for Campylobacter jejuni, diarrheagenic E. coli, Shigella, Salmonella, Aeromonas, and rotavirus, as detailed in previous publications (129, 136-138). […] Diarrhea episodes were defined throughout the study as three or more watery stools within a 24-hour period or loose-to-watery bowel movements that exceeded the child's usual daily stool frequency by two or more stools as determined by a study physician. […] Classification of disease severity was based on the standardized history of each diarrhea episode recorded by a study physician, and was blind to and independent of milk oligosaccharide analysis. Diarrhea was attributed to campylobacter or calicivirus if the pathogen was detected in a stool sample collected during or within seven days of an episode of diarrhea. […]
Milk samples were transported to Boston and analyzed as described previously(143). Milk oligosaccharides were isolated, perbenzoylated, and resolved by reversed-phase HPLC (C-8) with an acetonitrile/water gradient and detected at 229 nm. […]

[1] = test system: campylobacter adherence to intestinal epithelial cells; details: early studies (ref. 80); cited from earlier work
V. cholerae = details: previous studies (ref. 86); cited from earlier work
calicivirus = experiment: Cohort of breastfed mother-infant pairs: milk oligosaccharide vs calicivirus-associated diarrhea; type: in vivo, human
Excerpt: as §1, with “thereafter.” for “thereafter. Samples were collected in the morning by an experienced study nurse using an Egnell electric breast pump to obtain the complete content of one breast. Samples were transported on ice from the study household to the laboratory, where they were stored at −70° C. Infant stool samples were collected weekly with additional samples obtained whenever diarrhea occurred. Diarrhea samples were routinely tested for Campylobacter jejuni, diarrheagenic E. coli, Shigella, Salmonella, Aeromonas, and rotavirus, as detailed in previous publications (129, 136-138).”
Milk samples were transported to Boston and analyzed as described previously(143). […]

[2] = test system: Campylobacter binding to FUT1-CHO cells; experiment: Inhibition of Campylobacter binding to FUT1-transfected CHO cells; type: cell-based, Campylobacter jejuni; details: FIG. 7
Excerpt: α1,2-fucosyltransferase-transfected CHO cells (CHO-FUT1), α1,3/4-fucosyltransferase-transfected CHO cells (CHO-FUT3), and α1,3-fucosyltransferase-transfected CHO cells (CHO-FUT4), and parental CHO cells transfected with the vector pCDM7 lacking the α1,2 FUT gene (CHO-WT) can be used to test bacterial binding and bacterial/host cell agglutination. Parental CHO cells with the vectors are used as controls.
The binding of bacteria to CHO cells transfected with the human gene for α1,2-fucosyltransferase (FUT1), can be assessed by bacterial-cell association assay. […]
Ligands, such as α1,2-fucosyl ligands and homologs are tested for their ability to inhibit binding of campylobacter and V. cholerae strains to CHO-FUT1 cells. For molecules that is bind to H-2 ligands, including anti-H-2 monoclonal antibodies (anti-H-2 MAbs) and the lectins Ulex europaeus (UEA I) and Lotus tetragonolobus (Lotus), inhibition is measured on monolayers of CHO-FUT1 cells incubated in 8-well chamber slides for 1 h with each of the α1,2-fucosyl ligands before adding 100 μL of the bacterial suspension containing 1×10^8 bacteria/mL. […] In both assays, after a 3 h incubation at 37° C., wells are rinsed, lysed with 1% Triton X100, and CFU (colony forming units) of bacteria per well are determined. […]

2-Fucosyllactose [2′-FL]
Inhibition of C. jejuni binding/colonization in human intestinal mucosa ex vivo (Campylobacter): inhibits | Association of rates of C. jejuni diarrhea during breastfeeding with oligosaccharide as a percent of milk oligosaccharide (Campylobacter jejuni): inversely associated | Campylobacter incidence in the intermediate and high groups compared to the low group (Campylobacter jejuni; tertiles (n=31) of 2′-FL as percent of milk oligosaccharide: low <0.29, intermediate 0.29-0.36, high >0.37, FIG. 6A): significantly (P<0.01) less

C[C@H](O)[C@@H](O)[C@@H](O)[C@H](O)C=O [L-fucose]
Inhibition of campylobacter adherence to intestinal epithelial cells [1]: inhibition | Inhibition of hemagglutination produced by V. cholerae with human O erythrocytes (V. cholerae): inhibited

Lacto-N-difucohexaose I [LDFH-I]
Association of calicivirus diarrhea during breastfeeding with oligosaccharide as a percent of milk oligosaccharide (calicivirus; breastfed infants, P=0.012, dose-dependent): inverse association | Calicivirus incidence in the high group compared to the low group (calicivirus; tertiles (n=31) of LDFH-I as percent of milk oligosaccharide: low <0.07, intermediate 0.07-0.11, high >0.12, FIG. 6B): significantly (P=0.02) less | Association of rates of C. jejuni diarrhea during breastfeeding with oligosaccharide as a percent of milk oligosaccharide (Campylobacter jejuni): directly associated

B1: Ulex europaeus lectin: lectin that binds to H-2 ligands (protein, UniProt P22972 1-243, looked up)
Anti-H(O) lectin 1: SDDLSFKFKNFSQNGKDLSFQGDASVIETGVLQLNKVGNNLPDETGGIARYIAPIHIWNCNTGEVASFITSFSFFMETSANPKAATDGLTFFLAPPDSPLRRAGGYFGLFEDTKDNDSSYQTVAVEFDTIGSPVNFDDPGFPHIGIDVNRVKSINAERWNKRYGLNNVANVEIIYEASSKTLTASLTYPSDQTSISVTSIVDLKEILPEWVSVGFSGGTYIGRQATHEVLNWYFTSNLINTNS
Inhibition of bacterial binding to α1,2-fucosyltransferase (FUT1)-transfected CHO cells [2]: specifically inhibited
